Data on nine compounds can be found in ChEMBL document CHEMBL1128956, “Irreversible inhibitions of serine proteases by peptidyl allylic halide derivatives” (Bioorg Med Chem Lett, 1996).

SMILES strings stand for the structures.

Assay [1] deals with Chymotrypsinogen A (Bos taurus) (UniProt P00766). The assay is described as follows: Compound was tested for inhibitory activity against alpha-chymotrypsin.
The target is the same in assay [2]. The assay is described as follows: Compound was tested for inhibitory activity towards alpha-chymotrypsin expressed as second order rate constant values; No inactivation.
Assay [3] shares this target. The assay is described as follows: Compound was tested for inhibitory activity towards alpha-chymotrypsin expressed as second order rate constant values.
The target is the same in assay [4]. The assay is described as follows: Compound was tested for inhibitory activity against alpha-chymotrypsin.
In assay [5] the target is T1, Chymotrypsin-like elastase family member 2A (Sus scrofa) (UniProt P08419).
T1 sequence (whole entry): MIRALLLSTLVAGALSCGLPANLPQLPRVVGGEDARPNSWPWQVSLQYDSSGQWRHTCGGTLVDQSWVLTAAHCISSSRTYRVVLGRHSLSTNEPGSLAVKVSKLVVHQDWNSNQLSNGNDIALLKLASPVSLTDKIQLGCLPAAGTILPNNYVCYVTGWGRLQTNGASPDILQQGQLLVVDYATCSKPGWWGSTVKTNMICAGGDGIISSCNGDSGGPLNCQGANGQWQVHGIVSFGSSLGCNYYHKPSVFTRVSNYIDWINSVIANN
Briefly: Compound was tested for inhibitory activity toward porcine pancreatic elastase.

The target of assay [6] is T1, Chymotrypsin-like elastase family member 2A (Sus scrofa). The assay is described as follows: Compound was tested for inhibitory activity toward porcine pancreatic elastase expressed as second order rate constant values: No inactivation.
Assay [7] has as its target Chymotrypsinogen A (Bos taurus) (UniProt P00766). The assay is described as follows: Compound was tested for inhibitory activity towards alpha-chymotrypsin expressed as second order rate constant values.

In assay [1], `O=C(CNC(=O)OCc1ccccc1)N[C@H](/C=C/CF)Cc1ccccc1` came in with a Concentration of 1.05 mM. The “k obs / concentration” value in assay [2] is “No inactivation”.

For the compound `O=C(CNC(=O)OCc1ccccc1)NCC(=O)N[C@H](/C=C/CBr)Cc1ccccc1`, the k obs / concentration in assay [3] was 1240 M⁻¹ s⁻¹; in assay [6], “No inactivation”. For the same compound, the Concentration in assay [4] is 7 µM; in assay [5] it was 15 µM.

For `CC(=O)N[C@H](/C=C/CCl)Cc1ccccc1`, the Concentration in assay [1] was found to be 0.476 mM. The k obs / concentration in assay [7] is 0.8 M⁻¹ s⁻¹.

`O=C(CNC(=O)OCc1ccccc1)NCC(=O)N[C@H](/C=C/CCl)Cc1ccccc1`: the k obs / concentration in assay [3] was 61 M⁻¹ s⁻¹; in assay [6] it was “No inactivation”. For the same compound, the results for the Concentration in assay [4] and in assay [5] were 17 µM and 97 µM, respectively.

Turning to `O=C(CNC(=O)OCc1ccccc1)N[C@H](/C=C/CCl)Cc1ccccc1`, the k obs / concentration in assay [3] was 12 M⁻¹ s⁻¹; in assay [6], “No inactivation”. The Concentration in assay [4] worked out at 28 µM; in assay [5] it was 600 µM.

In the case of `O=C(CNC(=O)OCc1ccccc1)N[C@H](/C=C/CBr)Cc1ccccc1`, the k obs / concentration in assay [3] was 215 M⁻¹ s⁻¹; in assay [6], “No inactivation”. Moreover, the Concentration in assay [4] and in assay [5] was 25 µM throughout.

In the case of `CC(=O)N[C@H](/C=C/CF)Cc1ccccc1`, the Concentration in assay [1] was found to be 13.5 mM. In addition, in assay [2], the “k obs / concentration” value is “No inactivation”.

Regarding `CC(=O)N[C@H](/C=C/CBr)Cc1ccccc1`, the k obs / concentration in assay [3] was 14 M⁻¹ s⁻¹; in assay [6], “No inactivation”. Further, the Concentration in assay [4] and in assay [5] was 101 µM in each case.

On to `O=C(CNC(=O)OCc1ccccc1)NCC(=O)N[C@H](/C=C/CF)Cc1ccccc1`, for which the Concentration in assay [1] is 4.4 mM. In assay [2], the “k obs / concentration” value is “No inactivation”.
